Data taken from article PMC6131539, “Behavioral Effects of a Potential Novel TAAR1 Antagonist” (Frontiers in Pharmacology, 2018).

Experiments:
[1] = tested on: C57BL/6J mice; assay: Basal locomotor activity in C57BL/6J mice; format: in vivo
Protocol: (§1) Experimentally naïve mice, of at least 12 weeks of age, were used for all behavioral experiments. The mice were randomly assigned to treatment or control groups, balanced by sex and weight. Locomotor activity was assessed using the automated locomotor analysis monitors (Omnitech Electronics, Columbus, OH, United States). The apparatus included four open field monitors. Each Open Field monitor consisted of sets of 16 light beams arrayed in the horizontal X and Y axes. The hardware detected beams broken by the animal, which allowed the software to determine the location of the mouse in the cage. Total distance covered by mice was used to characterize locomotor activity of the animals. The monitors were divided into four compartments (20 cm × 20 cm). Animals were tested individually for defined periods with 5-min intervals. The mice were first weighed and then placed into the apparatus, allowing for 30 min habituation. Following the habituation, the mice were removed from the al apparatus and injected with drugs (see below for administration) or vehicle and returned immediately to the locomotor chamber. The locomotor activity was then measured for additional 1 h. After the experiments, the animals were euthanized by cervical dislocation.
(§2) All drug solutions were prepared freshly on the day of the experiment and injected i.p. at the volume of 10 ml/kg. […] Amphetamine was dissolved in 0.9% saline at a concentration of 0.2 mg/mL.
In order to assess the effects of compound 22 on basal locomotor activity, C57BL/6 mice were injected with doses of 5 and 30 mg/kg of compound 22 or vehicle (Figure 1). At the dose of 5 mg/kg, compound 22 inhibited basal locomotor activity by 58% (^∗p = 0.02). Although not significant, there was a trend toward a decrease in locomotor activity at the dose of 30 mg/kg as well (26% decrease, p = 0.15).
FIGURE 1 In vivo studies with compound 22 on basal locomotor activity. Wild type C57BL/6J mice were first habituated for 30 min followed by co-injection of saline or compound 22 at a dose of 5 or 30 mg/kg. The locomotor activity was assessed for 60 min after injection. […]

[2] = tested on: C57BL/6J mice; assay: Cocaine-induced locomotor activity, co-injection, C57BL/6J mice; format: in vivo; details: 60 min
Protocol: as §1, §2
Since compound 22 enhanced amphetamine-induced locomotor response, we assessed if compound 22 could also enhance cocaine-induced locomotion in WT C57BL/6J mice (Figure 3).
The locomotor activity was assessed for 60 min after the injection. […] Data are means ± SEM; N = 7–9. One way ANOVA was performed [F(3,28) = 7.138, p = 0.001] followed by Dunnett’s post hoc analyses (^∗p < 0.05, ^∗∗∗p < 0.001).

[3] = tested on: WT littermates (C57BL/6J x 129S2/Sv); assay: Stereotypic counts, co-injection with amphetamine, WT littermates; format: in vivo, mice; details: any dose (2.5, 5, 15 mg/kg) co-injected with amphetamine 2 mg/kg
Protocol: as §1, with “Following the habituation, the mice were removed from the al apparatus and injected with drugs (see below for administration) or vehicle and returned immediately to the locomotor chamber.” left out, “After the experiments, the animals were euthanized by cervical dislocation.” left out
(§3) Supplementary file Image_2.TIF: FIGURE S2 In vivo studies with TAAR1-KO mice and compound 22 on stereotypic counts activity. […] The sum of stereotypic counts was assessed over 60 min after the injection of amphetamine and compound 22 in WT (solid bars) or TAAR1-KO mice (spotted bars). […] The sum of stereotypic counts was assessed over 60 min following the injection in WT (solid bars) or TAAR1-KO mice (dotted bars). […]

[4] = tested on: TAAR1-KO mice; assay: Stereotypic counts, co-injection with cocaine, TAAR1-KO mice; format: in vivo; details: 5, 15 and 25 mg/kg co-injected with cocaine 10 mg/kg
Protocol: as §1, with “Following the habituation, the mice were removed from the al apparatus and injected with drugs (see below for administration) or vehicle and returned immediately to the locomotor chamber.” left out, “After the experiments, the animals were euthanized by cervical dislocation.” left out
as §3

[5] = tested on: WT littermates (C57BL/6J x 129S2/Sv); assay: Stereotypic counts, co-injection with cocaine, WT littermates; format: in vivo, mice; details: 15 and 25 mg/kg co-injected with cocaine 10 mg/kg
Protocol: as §1, with “Following the habituation, the mice were removed from the al apparatus and injected with drugs (see below for administration) or vehicle and returned immediately to the locomotor chamber.” left out, “After the experiments, the animals were euthanized by cervical dislocation.” left out
as §3

[6] = target: Dopamine Transporter (Homo sapiens, UniProt Q01959); assay: Fluorescent dopamine uptake assay in HEK293 cells stably expressing human HA-DAT; format: cell-based; parameters: expressed in transfected cells
Protocol: Fluorescent dopamine uptake assay kits were purchased from Molecular Devices (Sunnyvale, CA; catalog #: R6138). Stable cells expressing human HA-DAT were seeded on poly-D-lysine treated, black clear-bottom 96-well plates (Corning Catalog #: 3603) at a density of 1 × 10^5 cells/well, and incubated for 24 h prior to the start of the uptake experiment. […] The plates were then incubated for 30 min at 37°C. Following incubation, 100 μL of dye solution was added and fluorescence intensity was measured for 30 min at 37°C using the SpectraMax M3 (Molecular Devices, excitation: 440 nm, emission: 520 nm). The rate of reaction (slope of the curve in the linear range) was taken as the readout for the assay.
Data analyses were performed with Graphpad Prism 5.01 (GraphPad Software, Inc., La Jolla, CA). Linear regression analysis was used to quantify fluorescent dopamine transporter uptake activity. Dose response curves were fitted with non-linear curve fitting. Two-tailed Student’s t-tests or one-way ANOVA analysis with Dunnett’s post hoc correction was used where appropriate to determine differences between data sets.
The ability of compound 22 to directly disrupt uptake activity was assessed with a fluorescent uptake assay.
Error bars represent standard error of mean at N = 3.

Chain of Dopamine Transporter (Q01959 with tags, fused parts or gaps H193Y/G195Y/DEL197-198/G199V/D200P/S201D/S202Y/G203A): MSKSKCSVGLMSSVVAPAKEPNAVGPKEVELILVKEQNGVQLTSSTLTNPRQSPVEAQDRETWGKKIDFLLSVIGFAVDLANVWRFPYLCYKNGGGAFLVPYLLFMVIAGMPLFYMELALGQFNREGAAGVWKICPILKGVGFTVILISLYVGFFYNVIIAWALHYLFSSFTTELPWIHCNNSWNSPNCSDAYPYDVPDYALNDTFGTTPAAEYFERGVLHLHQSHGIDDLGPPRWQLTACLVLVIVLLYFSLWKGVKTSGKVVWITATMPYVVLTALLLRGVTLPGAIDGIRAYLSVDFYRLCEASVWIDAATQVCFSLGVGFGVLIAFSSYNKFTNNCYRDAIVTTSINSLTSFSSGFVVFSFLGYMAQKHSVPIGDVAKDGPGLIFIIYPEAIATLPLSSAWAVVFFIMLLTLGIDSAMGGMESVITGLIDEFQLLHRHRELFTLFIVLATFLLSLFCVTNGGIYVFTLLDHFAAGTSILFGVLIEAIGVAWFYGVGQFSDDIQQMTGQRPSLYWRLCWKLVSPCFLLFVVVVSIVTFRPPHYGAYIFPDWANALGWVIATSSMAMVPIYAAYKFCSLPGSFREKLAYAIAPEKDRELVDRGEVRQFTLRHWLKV

In the case of `Clc1ccc(CNCc2ccc(Cn3cncn3)cc2)c(Cl)c1` [compound 22], the “inhibition of basal locomotor activity” value ([1]; 5 mg/kg i.p. alone, sum over 60 min vs saline, p = 0.02) is reported as 58%, the “decrease in basal locomotor activity” value ([1]; 30 mg/kg i.p. alone, sum over 60 min vs saline, not significant, p = 0.15) is reported as 26% and the “effect on locomotor activity when administered alone” value ([1]; 5 and 30 mg/kg i.p., administered alone) is reported as “did not stimulate locomotor activity”. For the same compound, the “increase in cocaine-induced locomotor activity” value (shortened to “increase”) ([2]; 5 mg/kg i.p. co-injected with cocaine 10 mg/kg, p = 0.03) was 77%, the “increase” value ([2]; 15 mg/kg i.p. co-injected with cocaine 10 mg/kg, p = 0.02) was 84% and the “increase” value ([2]; 25 mg/kg i.p. co-injected with cocaine 10 mg/kg, p = 0.003) was 124%. The stereotypic counts [3] was “did not have statistically enhanced stereotypic counts”, the stereotypic counts [4] was “significant increases in stereotypic counts” and the stereotypic counts [5] was “enhanced stereotypic counts”. The “effect on dopamine uptake activity” value ([6]; HEK293 cells stably expressing human HA-DAT, increasing doses) was “no effect on dopamine uptake activity” and the “effect on cocaine dose response inhibition of dopamine uptake” value ([6]; co-treatment with 1, 10 and 100 μM compound 22) was “did not alter”.
